The text below walks through data of US7897588B2, “Agents and methods for enhancing bone formation” (The Regents of the University of California, priority 2003, dated 2011).

One experiment has as its system osteocalcin mRNA. Briefly: Northern blot for osteocalcin mRNA in M2 cells. It counts as cell-based, mouse. How it is done: RNA isolation and Northern blot analysis—Following treatment of cells under appropriate experimental conditions, total RNA was isolated using the RNA isolation kit from Stratagene (La Jolla, Calif., U.S.A.). Total RNA ([…]) was run on a 1% agarose/formaldehyde gel and transferred to Duralon-UV membranes (Strategene, Calif., U.S.A.) and cross-linked with UV light. The membranes were hybridized overnight at 60 degree C. with ^32P-labeled mouse osteocalcin cDNA probe, mouse lipoprotein lipase (LPL), mouse adipocyte protein 2 (aP2) PCR-generated probes, human 28S or 18S rRNA probes obtained from Geneka Biotechnology (Montreal, Quebec, Canada) and Maxim Biotech (San Francisco, Calif., U.S.A.), respectively. […] Following hybridization, the blots were washed twice at room temperature with 2×SSC+0.1% SDS, and then twice at 60 degree C. with 0.5×SSC+0.1% SDS, and exposed to X-ray film. The extent of gene induction was determined by densitometry.
After 4 and 8 days, total RNA from duplicate samples was isolated and analyzed for osteocalcin (Osc) and 28S rRNA expression by Northern blotting as described. FIG. 3E is a radiogram of Northern blotting for osteocalcin mRNA in M2 cells exposed to a control or combination of oxysterols for 4 or 8 days. FIG. 3F is a bar graph depicting the relative demsometric units of osteocalcin mRNA in M2 cells exposed to a control or combination of oxysterols for 4 or 8 days. Data from densitometric analysis of the Northern blot is shown in (F) as the average of duplicate samples, normalized to 28S rRNA.
Next, a combination of 22R and 20S oxysterols (RS, 2.5 μM each) were added in the presence or absence of SC as indicated. After 3 days, ALP activity was measured as described earlier. […] (B) M2 cells were treated as described in (A) and after 10 days matrix mineralization in cultures was quantified by a ^45Ca incorporation assay as described earlier. Results from a representative of three experiments are shown, reported as the mean±SD of quadruplicate determinations, normalized to protein concentration. (C) M2 cells were pretreated with 20 μM SC for 4 hours, followed by the addition of RS in the presence or absence of SC as described above. After 8 days, total RNA was isolated and analyzed for osteocalcin (Osc) and 18S rRNA expression by Northern blotting as previously described. Data from densitometric analysis of the Northern blot is shown in (D) as the average of duplicate samples, normalized to 18S rRNA. (E) M2 cells at confluence were pretreated for 2 hours with control vehicle (C), or PLA2 inhibitors ACA (25 μM) and AACOCF3 (AAC, 20 μM), in osteogenic medium. […] After 3 days, ALP activity was measured as previously described. […]

For experiment [1], the system named is M2-10B4 mouse marrow stromal cell line. The experiment is described as follows: Matrix mineralization in M2 cells (von Kossa staining, 45Ca incorporation assay). It counts as cell-based. How it is done:
Cells: M2-10B4 mouse marrow stromal cell line obtained from American Type Culture Collection (ATCC, Rockville, Md., U.S.A.) was derived from bone marrow stromal cells of a (C57BL/6J×C3H/HeJ) F1 mouse, and support human and murine myelopoiesis in long-term cultures (as per ATCC) and have the ability to differentiate into osteoblastic and adipocytic cells. Unless specified, these cells were cultured in RPMI 1640 containing 10% heat-inactivated FBS, and supplemented with 1 mM sodium pyruvate, 100 U/ml penicillin, and 100 […] (all from Irvine Scientific).
Von Kossa and oil red O staining—Matrix mineralization in cell monolayers was detected by silver nitrate staining as previously described. Oil red O staining for detection of adipocytes was performed as previously described.
^45Ca incorporation assay—Matrix mineralization in cell monolayers was quantified using the ^45Ca incorporation assay as previously described.
M2 cells at confluence were treated in osteogenic medium with control vehicle or 5 μM oxysterols, alone or in combination as indicated. After 14 days, mineralization was identified by a von Kossa staining, which appears black. FIG. 3C is a depiction of von Kossa staining of M2 cells exposed to various conditions.
M2 cells were treated with control vehicle (C) or a combination of 22R and 20S oxysterols at increasing concentrations. After 14 days, matrix mineralization in cultures was quantified using a ^45Ca incorporation assay. […] FIG. 3D is a bar graph depicting the effect of a combination of oxysterols at various doses on calcium incorporation in M2 cells.
Next, a combination of 22R and 20S oxysterols (RS, 2.5 μM each) were added in the presence or absence of SC as indicated. After 3 days, ALP activity was measured as described earlier. […] (B) M2 cells were treated as described in (A) and after 10 days matrix mineralization in cultures was quantified by a ^45Ca incorporation assay as described earlier. Results from a representative of three experiments are shown, reported as the mean±SD of quadruplicate determinations, normalized to protein concentration. (C) M2 cells were pretreated with 20 μM SC for 4 hours, followed by the addition of RS in the presence or absence of SC as described above. After 8 days, total RNA was isolated and analyzed for osteocalcin (Osc) and 18S rRNA expression by Northern blotting as previously described. Data from densitometric analysis of the Northern blot is shown in (D) as the average of duplicate samples, normalized to 18S rRNA. (E) M2 cells at confluence were pretreated for 2 hours with control vehicle (C), or PLA2 inhibitors ACA (25 μM) and AACOCF3 (AAC, 20 μM), in osteogenic medium. Next, a combination of 22R and 20S oxysterols (RS, 2.5 μM) was added in the presence or absence of the inhibitors as indicated. After 3 days, ALP activity was measured as previously described. Data from a representative of three experiments are shown, reported as the mean±SD of quadruplicate determinations, normalized to protein concentration (p<0.01 for RS vs. RS+ACA and RS+AAC). (F) M2 cells were treated as described in (E). After 10 days, matrix minerliazation in cultures was quantified using a ^45Ca incorporation assay as previously described. Results from a representative of three experiments are shown, reported as the mean of quadruplicate determinations±SD, normalized to protein concentration (p<0.01 for RS vs. RS+ACA and RS+AAC).
(A) M2 cells at confluence were pretreated for four hours with RPMI containing 1% FBS, followed by treatment with control vehicle or 5 μM 20S oxysterol for 1, 4, or 8 hours. Next total cell extracts were prepared and analyzed for levels of native or phosphorylated ERK (pERK) using specific antibodies as previously described.

[2] abbreviates: individual oxysterols 0.5-10 μM up to 14 days, combinations 5 μM each, 4 and 8 days.
Where [3] appears, read: individual oxysterols 0.5-10 μM or combinations, up to 14 days.

As to `CC(C)CCC[C@](C)(O)[C@H]1CC[C@H]2[C@@H]3CC=C4C[C@@H](O)CC[C@]4(C)[C@H]3CC[C@@]21C` [20S, 20(S)-hydroxycholesterol], the “induction of osteocalcin gene expression” value in the experiment with osteocalcin mRNA (setting [2]) was “unable to induce”. Moreover, in experiment [1] (setting [3]), the induction of mineralization result is recorded as “unable to induce”.

With `CC(C)CC[C@@H](O)[C@@H](C)[C@H]1CC[C@H]2[C@@H]3CC=C4C[C@@H](O)CC[C@]4(C)[C@H]3CC[C@]12C` [22R, 22(R)-hydroxycholesterol], the “induction of osteocalcin gene expression” value in the experiment with osteocalcin mRNA (setting [2]) is “unable to induce”. For the same compound, the induction of mineralization entry in experiment [1] (setting [3]) is “unable to induce”.

Regarding `CC(C)CC[C@H](O)[C@@H](C)[C@H]1CC[C@H]2[C@@H]3CC=C4C[C@@H](O)CC[C@]4(C)[C@H]3CC[C@]12C` [22S, 22(S)-hydroxycholesterol], the “induction of osteocalcin gene expression” value in the experiment with osteocalcin mRNA (setting [2]) is recorded as “unable to induce”. The induction of mineralization entry in experiment [1] (setting [3]) is “unable to induce”.

As to `O=S(=O)(c1ccccc1)N(CC(F)(F)F)c1ccc(C(O)(C(F)(F)F)C(F)(F)F)cc1` [TO, TO-901317], the “induction of osteocalcin gene expression” value in the experiment with osteocalcin mRNA (TO treatment, after 10 days) is “did not induce”. The induction of mineralization result in experiment [1] (TO treatment, after 10 days) is “did not induce”.
